“And” between values parts separate entries of the source, which are not always exact repeats. Equal entries are not always repeated. Results filed as inconclusive are left out.
Test system: BDF1 mice, s.c. Lewis lung carcinoma, T/C %
Test: NCI In Vivo Anticancer Drug Screen. Data for tumor model Lewis Lung Carcinoma (subcutaneous) in B6D2F1 (BDF1) mice
Method in brief: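 Antitumor effect in vivo is scored from survival or tumor burden, reported as treated relative to vehicle controls.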

[1] = endpoint: mean tumor weight, dose: 12.5 mg/kg/injection, schedule: Q01DX011 (ip), vehicle: saline, higher = larger tumour
[2] = endpoint: mean tumor weight, dose: 25.0 mg/kg/injection, schedule: Q01DX011 (ip), vehicle: saline, higher = larger tumour
[3] = endpoint: mean tumor weight, dose: 50.0 mg/kg/injection, schedule: Q01DX011 (ip), vehicle: saline, higher = larger tumour
[4] = endpoint: mean tumor weight, dose: 100.0 mg/kg/injection, schedule: Q01DX011 (ip), vehicle: saline, higher = larger tumour

NS(=O)(=O)c1ncnc2nc[nH]c12 was tested, and the T/C (endpoint: mean tumor weight, dose: 5.0 mg/kg/injection, schedule: Q01DX011 (ip), vehicle: methylcellulose (MC), higher = larger tumour) was 88 % of control and the T/C (endpoint: mean tumor weight, dose: 25.0 mg/kg/injection, schedule: Q01DX011 (ip), vehicle: methylcellulose (MC), higher = larger tumour) was 87 % of control.

With NC(=S)N/N=C/c1ncccc1O the T/C (endpoint: mean tumor weight, dose: 6.25 mg/kg/injection, schedule: Q01DX011 (ip), vehicle: saline, higher = larger tumour) was 99 % of control, the T/C [1] was 86 % of control and the T/C [2] was 61 % of control. The T/C [3] was 31 % of control and the T/C [4] was 1 % of control.

With CC(=O)N(C)C(C(=O)N1CC(C)CC1C(=O)N(C)C1C(=O)NC(CC(C)C)C(=O)N2CC(C)CC2C(=O)NC(CC(C)C)C(=O)N(C)C(C(C)C)C(=O)N2CCCC2C(=O)N(C)C(CC(C)C)C(=O)NCC(=O)OC1C)C(C)C (stereo unspecified) the T/C (endpoint: median survival time, dose: 9.4 mg/kg/injection, schedule: Q01DX009 (ip), vehicle: Klucel (hydroxypropylcellulose) (HPC), higher = longer survival) was 94 % of control, the T/C (endpoint: median survival time, dose: 18.75 mg/kg/injection, schedule: Q01DX009 (ip), vehicle: Klucel (hydroxypropylcellulose) (HPC), higher = longer survival) was 98 % of control and the T/C (endpoint: median survival time, dose: 37.5 mg/kg/injection, schedule: Q01DX009 (ip), vehicle: Klucel (hydroxypropylcellulose) (HPC), higher = longer survival) was 96 % of control.

In the case of CCCCCC[C@H]([C@H](C)O)n1cnc2c(N)ncnc21, the T/C (endpoint: median survival time, dose: 25.0 mg/kg/injection, schedule: Q01DX009 (ip), vehicle: Klucel (hydroxypropylcellulose) (HPC), higher = longer survival) is reported as 88 % of control, the T/C (endpoint: median survival time, dose: 50.0 mg/kg/injection, schedule: Q01DX009 (ip), vehicle: Klucel (hydroxypropylcellulose) (HPC), higher = longer survival) is reported as 103 % of control and the T/C (endpoint: median survival time, dose: 100.0 mg/kg/injection, schedule: Q01DX009 (ip), vehicle: Klucel (hydroxypropylcellulose) (HPC), higher = longer survival) is reported as 111 % of control.

CCCCCOC(CN)C(Cl)(Cl)Cl (stereo unspecified) was tested, and the T/C (endpoint: median survival time, dose: 12.5 mg/kg/injection, schedule: Q01DX009 (ip), vehicle: saline, higher = longer survival) was 100 % of control, the T/C (endpoint: median survival time, dose: 25.0 mg/kg/injection, schedule: Q01DX009 (ip), vehicle: saline, higher = longer survival) was 92 % of control and the T/C (endpoint: median survival time, dose: 100.0 mg/kg/injection, schedule: Q01DX009 (ip), vehicle: saline, higher = longer survival) was 95 % of control.

With OCN(CO)c1nc(N(CO)CO)nc(N(CO)CO)n1 the T/C (endpoint: median survival time, dose: 6.25 mg/kg/injection, schedule: Q01DX009 (ip), vehicle: saline with Tween-80, higher = longer survival) was 109 % of control, the T/C (endpoint: median survival time, dose: 12.5 mg/kg/injection, schedule: Q01DX009 (ip), vehicle: saline with Tween-80, higher = longer survival) was 107 % of control and the T/C (endpoint: median survival time, dose: 25.0 mg/kg/injection, schedule: Q01DX009 (ip), vehicle: saline with Tween-80, higher = longer survival) was 102 % of control.

In the case of Nc1ncnc2nc[nH]c12, the T/C [1] is reported as 101 % of control, the T/C [2] is reported as 104 % of control and the T/C [3] is reported as 84 % of control. The T/C [4] was 43 % of control and 49 % of control.

CCC(C)n1ncc2c(N(C)C)ncnc21 (stereo unspecified) was tested, and the T/C (endpoint: mean tumor weight, dose: 32.5 mg/kg/injection, schedule: Q01DX011 (ip), vehicle: carboxymethylcellulose (CMC), higher = larger tumour) was 76 % of control.

In the case of C=C(C)C12CC(C)C34OC5(CCCCCCCC(C)C6C(C)C(OC(=O)c7ccccc7)C(O)(C(O)C7(COC(=O)CCCCCCCCCCCCCCC)OC7C3C1O5)C64)O2 (stereo unspecified), the T/C (endpoint: median survival time, dose: 1.0 micrograms/kg/injection, schedule: Q01DX009 (ip), vehicle: Klucel (hydroxypropylcellulose) (HPC), higher = longer survival) is reported as 93 % of control, the T/C (endpoint: median survival time, dose: 1.9 micrograms/kg/injection, schedule: Q01DX009 (ip), vehicle: Klucel (hydroxypropylcellulose) (HPC), higher = longer survival) is reported as 209 % of control and the T/C (endpoint: median survival time, dose: 2.0 micrograms/kg/injection, schedule: Q01DX009 (ip), vehicle: Klucel (hydroxypropylcellulose) (HPC), higher = longer survival) is reported as 86 % of control. For the same compound, the T/C (endpoint: median survival time, dose: 3.8 micrograms/kg/injection, schedule: Q01DX009 (ip), vehicle: Klucel (hydroxypropylcellulose) (HPC), higher = longer survival) was 208 % of control, the T/C (endpoint: median survival time, dose: 4.0 micrograms/kg/injection, schedule: Q01DX009 (ip), vehicle: Klucel (hydroxypropylcellulose) (HPC), higher = longer survival) was 97 % of control and the T/C (endpoint: median survival time, dose: 7.5 micrograms/kg/injection, schedule: Q01DX009 (ip), vehicle: Klucel (hydroxypropylcellulose) (HPC), higher = longer survival) was 209 % of control. The T/C (endpoint: median survival time, dose: 8.0 micrograms/kg/injection, schedule: Q01DX009 (ip), vehicle: Klucel (hydroxypropylcellulose) (HPC), higher = longer survival) was 96 % of control, the T/C (endpoint: median survival time, dose: 15.0 micrograms/kg/injection, schedule: Q01DX009 (ip), vehicle: Klucel (hydroxypropylcellulose) (HPC), higher = longer survival) was 101 % of control and the T/C (endpoint: median survival time, dose: 16.0 micrograms/kg/injection, schedule: Q01DX009 (ip), vehicle: Klucel (hydroxypropylcellulose) (HPC), higher = longer survival) was 88 % of control.

For CCN(CC)CCNc1ccc(C)c2sc3ccccc3c(=O)c12, the T/C (endpoint: mean tumor weight, dose: 20.0 mg/kg/injection, schedule: Q01DX011 (ip), vehicle: carboxymethylcellulose (CMC), higher = larger tumour) was 62 % of control and 65 % of control, the T/C (endpoint: mean tumor weight, dose: 40.0 mg/kg/injection, schedule: Q01DX011 (ip), vehicle: carboxymethylcellulose (CMC), higher = larger tumour) was 51 % of control and 59 % of control and the T/C (endpoint: mean tumor weight, dose: 80.0 mg/kg/injection, schedule: Q01DX011 (ip), vehicle: carboxymethylcellulose (CMC), higher = larger tumour) was 16 % of control.

— PubChem BioAssay AID270 (DTP/NCI, 2004)
